Holding throughout (type): biochemical
One assay addresses FGFR2 (Homo sapiens, UniProt P21802). Description: Protein kinase inhibition, FGFR2. To be noted: Rate (μM) 2, read-out: % Control.
The target in the next assay is TrkA (Homo sapiens, UniProt P04629). The assay can be described thus: Protein kinase inhibition, TrkA. Conditions: Rate (μM) 2, read-out: % Control.
The target in a further assay is TrkB (Homo sapiens, UniProt Q16620). Description: TrkB Kinase Activity. The method, then: (§1) TrkB Kinase Activity: In a final reaction volume of 25 μl, TrkB (h) (5-10 mU) is incubated with 8 mM MOPS pH 7.0, 0.2 mM EDTA, 0.1 mg/ml poly(Glu, Tyr) 4:1, 10 mM MgAcetate and [γ-^33P-ATP] (specific activity approx. 500 cpm/pmol, concentration as required). The reaction is initiated by the addition of the MgATP mix. After incubation for 40 minutes at room temperature, the reaction is stopped by the addition of 5 μl of a 3% phosphoric acid solution. 10 μl of the reaction is then spotted onto a Filtermat A and washed three times for 5 minutes in 75 mM phosphoric acid and once in methanol prior to drying and scintillation counting.
Sequence of TrkB (Q16620 32-822): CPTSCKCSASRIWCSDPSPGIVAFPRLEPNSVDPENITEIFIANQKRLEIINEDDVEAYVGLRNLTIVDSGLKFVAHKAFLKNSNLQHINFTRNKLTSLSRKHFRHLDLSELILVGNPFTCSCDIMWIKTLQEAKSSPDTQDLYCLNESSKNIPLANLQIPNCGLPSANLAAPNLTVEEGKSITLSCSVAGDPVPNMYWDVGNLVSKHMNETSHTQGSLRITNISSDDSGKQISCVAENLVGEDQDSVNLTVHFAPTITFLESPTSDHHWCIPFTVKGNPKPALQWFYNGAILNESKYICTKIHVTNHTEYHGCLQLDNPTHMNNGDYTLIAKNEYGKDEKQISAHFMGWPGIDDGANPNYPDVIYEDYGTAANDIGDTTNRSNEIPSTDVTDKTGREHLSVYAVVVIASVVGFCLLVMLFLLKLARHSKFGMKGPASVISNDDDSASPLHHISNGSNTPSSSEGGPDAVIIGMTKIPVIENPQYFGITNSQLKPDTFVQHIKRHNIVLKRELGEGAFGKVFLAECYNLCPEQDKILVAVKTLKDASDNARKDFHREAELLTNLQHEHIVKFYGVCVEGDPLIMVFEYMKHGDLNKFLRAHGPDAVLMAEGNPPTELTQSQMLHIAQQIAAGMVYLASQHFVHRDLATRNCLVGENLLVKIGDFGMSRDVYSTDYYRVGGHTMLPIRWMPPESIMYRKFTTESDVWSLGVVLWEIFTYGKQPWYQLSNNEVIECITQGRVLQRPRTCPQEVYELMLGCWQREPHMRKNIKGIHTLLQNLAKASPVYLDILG

The next assay deals with c-RAF (Homo sapiens, UniProt P04049). The assay can be described thus: c-RAF Kinase Activity. Here is the method:
(§2) c-RAF Kinase Activity: In a final reaction volume of 25 μl, c-RAF (h) (5-10 mU) is incubated with 25 mM Tris pH 7.5, 0.02 mM EGTA, 0.66 mg/ml myelin basic protein, 10 mM MgAcetate, and [γ-^33P-ATP] (specific activity approx. 500 cpm/pmol, concentration as required). The reaction is initiated by the addition of the MgATP mix. After incubation for 40 minutes at room temperature, the reaction is stopped by the addition of 5 μl of a 3% phosphoric acid solution. 10 μl of the reaction is then spotted onto a P30 filtermat and washed three times for 5 minutes in 75 mM phosphoric acid and once in methanol prior to drying and scintillation counting.

The target of another assay is Lck (Homo sapiens, UniProt P06239). Description: Lck Kinase Activity. The method, then:
as §2, with “Lck Kinase” for “c-RAF Kinase”, “[…], Lck” for “25 μl, c-RAF”, “with 50” for “with 25”, “7.5, 0.1” for “7.5, 0.02”, “EGTA, 0.1 mM Na3VO4, 250 μM KVEKIGEGTYGVVYK (Cdc2 peptide),” for “EGTA, 0.66 mg/ml myelin basic protein,”, “mM MgAcetate” for “mM MgAcetate,”

For the next assay, the target named is FGFR1 (Homo sapiens, UniProt P11362). The assay can be described thus: Protein kinase inhibition, FGFR1. To be noted: Rate (μM) 2, read-out: % Control.
Sequence of FGFR1 (P11362 22-822): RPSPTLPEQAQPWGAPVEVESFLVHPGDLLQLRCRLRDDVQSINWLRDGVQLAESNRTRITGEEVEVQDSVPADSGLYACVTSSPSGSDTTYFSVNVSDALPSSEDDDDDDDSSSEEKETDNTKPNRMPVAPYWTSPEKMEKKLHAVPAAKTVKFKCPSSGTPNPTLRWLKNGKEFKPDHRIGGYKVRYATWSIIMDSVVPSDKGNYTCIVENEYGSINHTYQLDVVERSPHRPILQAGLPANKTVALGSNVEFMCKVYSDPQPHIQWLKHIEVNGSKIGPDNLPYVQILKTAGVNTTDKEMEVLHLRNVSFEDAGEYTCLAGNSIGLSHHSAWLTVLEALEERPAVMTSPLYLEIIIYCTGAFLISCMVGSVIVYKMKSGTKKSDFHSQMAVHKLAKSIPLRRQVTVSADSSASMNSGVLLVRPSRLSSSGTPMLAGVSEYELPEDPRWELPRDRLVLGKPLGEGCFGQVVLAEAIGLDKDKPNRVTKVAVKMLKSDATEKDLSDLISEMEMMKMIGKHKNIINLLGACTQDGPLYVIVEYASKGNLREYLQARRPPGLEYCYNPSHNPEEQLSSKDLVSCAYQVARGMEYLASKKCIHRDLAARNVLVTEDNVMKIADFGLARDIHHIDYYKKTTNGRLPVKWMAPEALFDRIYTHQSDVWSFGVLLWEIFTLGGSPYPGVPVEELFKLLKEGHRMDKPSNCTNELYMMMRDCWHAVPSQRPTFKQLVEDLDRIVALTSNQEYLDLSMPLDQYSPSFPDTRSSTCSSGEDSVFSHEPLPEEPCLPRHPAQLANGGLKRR
In the next assay the target is Flt1 (Homo sapiens, UniProt P17948). Description: Protein kinase inhibition, Flt1. Conditions: Rate (μM) 2, read-out: % Control.
Sequence of Flt1 (P17948 27-1338): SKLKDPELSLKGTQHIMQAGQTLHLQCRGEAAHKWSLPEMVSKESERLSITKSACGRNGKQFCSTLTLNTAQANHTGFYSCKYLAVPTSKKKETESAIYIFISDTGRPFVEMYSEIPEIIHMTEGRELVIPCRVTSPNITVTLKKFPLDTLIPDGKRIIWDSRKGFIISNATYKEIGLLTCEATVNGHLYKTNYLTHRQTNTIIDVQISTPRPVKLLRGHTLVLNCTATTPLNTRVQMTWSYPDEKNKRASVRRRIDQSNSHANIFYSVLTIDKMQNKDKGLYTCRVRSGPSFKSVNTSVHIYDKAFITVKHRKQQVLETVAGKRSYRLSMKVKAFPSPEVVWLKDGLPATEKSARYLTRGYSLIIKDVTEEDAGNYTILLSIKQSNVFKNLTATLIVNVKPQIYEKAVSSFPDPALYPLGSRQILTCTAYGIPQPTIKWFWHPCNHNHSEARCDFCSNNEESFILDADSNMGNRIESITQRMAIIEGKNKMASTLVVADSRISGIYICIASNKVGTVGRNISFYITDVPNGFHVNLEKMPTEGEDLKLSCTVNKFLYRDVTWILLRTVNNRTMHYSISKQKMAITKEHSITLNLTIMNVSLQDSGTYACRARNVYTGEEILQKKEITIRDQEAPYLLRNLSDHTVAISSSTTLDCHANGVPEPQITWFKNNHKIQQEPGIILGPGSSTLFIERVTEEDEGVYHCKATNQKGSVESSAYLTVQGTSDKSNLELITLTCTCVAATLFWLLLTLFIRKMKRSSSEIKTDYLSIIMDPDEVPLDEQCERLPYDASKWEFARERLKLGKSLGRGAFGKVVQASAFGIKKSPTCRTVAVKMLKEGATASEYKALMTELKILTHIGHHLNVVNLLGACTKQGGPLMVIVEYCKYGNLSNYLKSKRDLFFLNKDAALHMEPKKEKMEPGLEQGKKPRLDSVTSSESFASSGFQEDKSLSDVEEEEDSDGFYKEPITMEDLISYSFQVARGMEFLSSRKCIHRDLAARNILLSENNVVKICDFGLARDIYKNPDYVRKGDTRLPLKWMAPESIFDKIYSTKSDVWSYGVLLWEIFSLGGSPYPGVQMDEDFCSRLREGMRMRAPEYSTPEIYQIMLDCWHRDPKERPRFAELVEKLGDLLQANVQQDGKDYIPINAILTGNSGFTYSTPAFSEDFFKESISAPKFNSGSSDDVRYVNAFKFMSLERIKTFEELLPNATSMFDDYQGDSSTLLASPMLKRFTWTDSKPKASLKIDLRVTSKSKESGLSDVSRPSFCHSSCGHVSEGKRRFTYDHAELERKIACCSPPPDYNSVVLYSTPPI
In another assay the target is MuSK (Homo sapiens, UniProt O15146). The assay can be described thus: Protein kinase inhibition, MuSK. Conditions: Rate (μM) 2, read-out: % Control.
Sequence of MuSK (O15146 24-869): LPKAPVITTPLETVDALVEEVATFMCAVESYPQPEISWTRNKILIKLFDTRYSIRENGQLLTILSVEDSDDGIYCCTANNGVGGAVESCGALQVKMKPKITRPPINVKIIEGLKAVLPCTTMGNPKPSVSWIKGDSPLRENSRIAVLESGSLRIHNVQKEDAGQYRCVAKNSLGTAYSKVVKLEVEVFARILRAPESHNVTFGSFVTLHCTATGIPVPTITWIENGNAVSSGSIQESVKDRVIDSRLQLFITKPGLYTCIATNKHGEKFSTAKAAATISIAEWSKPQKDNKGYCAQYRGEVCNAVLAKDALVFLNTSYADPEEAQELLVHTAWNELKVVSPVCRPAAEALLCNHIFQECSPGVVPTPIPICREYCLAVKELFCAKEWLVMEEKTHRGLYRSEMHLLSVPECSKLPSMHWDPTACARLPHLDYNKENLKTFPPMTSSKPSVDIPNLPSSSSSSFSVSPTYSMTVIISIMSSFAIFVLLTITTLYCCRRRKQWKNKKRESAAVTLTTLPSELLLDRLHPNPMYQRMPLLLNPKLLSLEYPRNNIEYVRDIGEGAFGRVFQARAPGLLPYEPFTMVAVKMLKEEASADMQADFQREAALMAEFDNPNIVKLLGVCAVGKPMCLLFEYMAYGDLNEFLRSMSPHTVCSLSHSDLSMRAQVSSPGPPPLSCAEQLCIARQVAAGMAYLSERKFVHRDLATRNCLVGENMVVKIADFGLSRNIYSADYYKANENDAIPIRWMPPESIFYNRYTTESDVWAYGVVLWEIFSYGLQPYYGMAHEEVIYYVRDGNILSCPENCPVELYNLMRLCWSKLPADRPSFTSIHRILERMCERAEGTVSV
Another assay addresses T1, Flt3 (Homo sapiens, UniProt P36888).
T1 sequence (P36888 27-993): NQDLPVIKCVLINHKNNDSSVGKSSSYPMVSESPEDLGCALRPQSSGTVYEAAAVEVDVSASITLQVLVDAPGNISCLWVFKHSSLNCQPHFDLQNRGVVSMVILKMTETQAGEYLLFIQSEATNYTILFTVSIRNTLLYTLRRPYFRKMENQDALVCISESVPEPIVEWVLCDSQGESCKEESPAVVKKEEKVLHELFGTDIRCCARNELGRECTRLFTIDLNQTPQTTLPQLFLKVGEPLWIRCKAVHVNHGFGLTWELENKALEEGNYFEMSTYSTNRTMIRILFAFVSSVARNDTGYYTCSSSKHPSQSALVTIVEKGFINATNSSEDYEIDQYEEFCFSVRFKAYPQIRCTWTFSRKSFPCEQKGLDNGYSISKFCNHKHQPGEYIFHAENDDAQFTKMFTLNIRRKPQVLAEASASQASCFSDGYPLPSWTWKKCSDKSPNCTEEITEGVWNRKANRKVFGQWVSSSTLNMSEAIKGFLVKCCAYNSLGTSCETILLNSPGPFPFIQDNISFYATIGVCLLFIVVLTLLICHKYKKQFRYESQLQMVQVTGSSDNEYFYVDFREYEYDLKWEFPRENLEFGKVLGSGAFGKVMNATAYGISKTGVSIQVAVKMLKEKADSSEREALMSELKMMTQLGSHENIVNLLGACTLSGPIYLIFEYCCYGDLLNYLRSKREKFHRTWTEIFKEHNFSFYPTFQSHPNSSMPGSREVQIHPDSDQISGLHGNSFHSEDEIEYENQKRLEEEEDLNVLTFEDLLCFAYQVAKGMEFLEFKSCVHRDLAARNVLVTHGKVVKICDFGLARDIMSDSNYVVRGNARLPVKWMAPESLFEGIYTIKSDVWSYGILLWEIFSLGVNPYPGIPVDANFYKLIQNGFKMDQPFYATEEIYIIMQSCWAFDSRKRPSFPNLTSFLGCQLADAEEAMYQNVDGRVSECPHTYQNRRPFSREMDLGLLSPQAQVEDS
The assay can be described thus: Flt3 Kinase Activity. The method, then:
as §1, with “Flt3 Kinase Activity:” for “TrkB Kinase Activity:”, “25 μl, Flt3 (h) (5-10” for “25 μl, TrkB (h) (5-10”, “mM EDTA, 50 μM EAIYAAPFAKKK, 10 mM” for “mM EDTA, 0.1 mg/ml poly(Glu, Tyr) 4:1, 10 mM”, “of […] of a” for “of 5 μl of a”, “solution. […] of the” for “solution. 10 μl of the”, “onto a P30 filtermat and washed” for “onto a Filtermat A and washed”

Structures are written as SMILES.

Sequence of c-RAF (P04049 whole entry): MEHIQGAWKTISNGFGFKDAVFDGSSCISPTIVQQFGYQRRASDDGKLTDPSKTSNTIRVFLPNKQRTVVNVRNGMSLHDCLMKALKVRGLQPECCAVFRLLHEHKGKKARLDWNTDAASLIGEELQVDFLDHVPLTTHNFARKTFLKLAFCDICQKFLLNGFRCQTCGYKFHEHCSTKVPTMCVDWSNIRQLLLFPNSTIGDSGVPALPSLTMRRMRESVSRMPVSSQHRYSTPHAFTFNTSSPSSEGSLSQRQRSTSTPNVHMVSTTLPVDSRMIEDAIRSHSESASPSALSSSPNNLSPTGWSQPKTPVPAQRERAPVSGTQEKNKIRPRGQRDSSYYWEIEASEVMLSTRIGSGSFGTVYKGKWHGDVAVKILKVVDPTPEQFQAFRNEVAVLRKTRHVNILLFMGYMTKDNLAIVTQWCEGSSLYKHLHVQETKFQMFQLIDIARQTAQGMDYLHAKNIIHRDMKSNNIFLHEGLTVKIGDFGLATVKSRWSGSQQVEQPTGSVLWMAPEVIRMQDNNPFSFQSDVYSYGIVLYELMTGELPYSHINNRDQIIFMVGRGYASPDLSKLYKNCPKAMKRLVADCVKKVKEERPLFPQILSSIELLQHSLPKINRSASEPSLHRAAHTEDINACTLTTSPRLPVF
Sequence of Lck (P06239 whole entry): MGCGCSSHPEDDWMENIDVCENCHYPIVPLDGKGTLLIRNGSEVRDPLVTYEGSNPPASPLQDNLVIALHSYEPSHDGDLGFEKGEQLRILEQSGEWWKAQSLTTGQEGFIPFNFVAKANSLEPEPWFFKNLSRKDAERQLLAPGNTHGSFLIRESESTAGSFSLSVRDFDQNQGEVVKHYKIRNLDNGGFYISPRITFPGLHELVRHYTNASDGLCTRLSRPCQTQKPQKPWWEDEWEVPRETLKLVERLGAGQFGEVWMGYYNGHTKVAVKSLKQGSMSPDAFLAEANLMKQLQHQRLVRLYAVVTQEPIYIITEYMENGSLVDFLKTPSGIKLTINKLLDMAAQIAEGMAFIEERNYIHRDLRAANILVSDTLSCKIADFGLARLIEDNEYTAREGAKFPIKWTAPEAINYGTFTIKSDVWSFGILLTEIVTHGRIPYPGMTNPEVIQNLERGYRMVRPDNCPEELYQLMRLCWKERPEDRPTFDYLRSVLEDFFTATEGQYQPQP

For the molecule `CC(C)(C)c1cc(C(=O)N2CCS(=O)(=O)CC2)c(NC(=O)Nc2ccc(Oc3ccncc3)cc2)s1` [Example 3, 1-[5-tert-Butyl-3-(1,1-dioxo-1λ^6-thiomorpholine-4-carbonyl)thiophen-2-yl]-3-[4-(pyridin-4-yloxy)phenyl]urea], the remaining activity at 2 µM fell in the range of 51 to 75% on FGFR2; 76 to 100% at TrkA; 76 to 100% at TrkB (40 min, Human, Rate (μM) 2, read-out: % Control); 76 to 100% at c-RAF (40 min, cRaf, Human, Rate (μM) 2, read-out: % Control); 51 to 75% at Lck (40 min, Lck, Human, Rate (μM) 2, read-out: % Control); 76 to 100% on FGFR1. For the same molecule, the remaining activity at 2 µM on Flt1 is 76 to 100%; at MuSK, 76 to 100%; at Flt3 (40 min, Flt3, Human, Rate (μM) 2, read-out: % Control) it was 76 to 100%. The “% Inhibition at 2 μm” value at TrkB (compound at 2 μm) is listed as 76-100%; at c-RAF (c-RAF, compound at 2 μm), 76-100%; at Lck (LCK, compound at 2 μm), 51-75%; on Flt3 (Flt3, compound at 2 μm), 76-100%.

The values above are taken from US7612200B2, “Inhibitors of protein kinases” (Locus Pharmaceuticals, Inc., priority 2004, dated 2009).
